Experiment [1] has as its target Human Cbl-b (residues 40-426) (Homo sapiens (Human), UniProt Q13191). The experiment can be described thus: Cbl-b SPR assay. It counts as binding. To be noted: for Fold of selectivity: C-cbl SPR Kd vs Cbl-b SPR Kd; for Kd: SPR, 20° C. The protocol: (§1) Affinity of binding to Cbl-b and c-Cbl for compounds described herein was assessed by surface plasmon resonance (SPR) according to the following protocol.
(§2) A surface capture range of 1300-1500 RU of protein was used for both isoforms.
(§3) For SPR measurements, 6 concentrations with 2 fold serial dilution were measured with blanks flanking each series for double referencing. […] SPR sensorgrams were recorded in multi-cycle kinetics format, with a contact time of 60 seconds and a flow rate of 40 μl/min, the dissociation time was varied between 120-1200 seconds aiming for 4-5 half-lives of the measured interaction.
(§4) Kinetic and affinity parameters were extracted from the multicycle kinetics data fitting to a 1:1 binding model using the Biacore™ Incyte evaluation software (Cytiva).
(§5) Chaser assay utilize a single cycle kinetics SPR experiment with a contact time of 120 seconds, a flow rate of 50 μl/min and a dissociation time of 450 seconds. Single cycle kinetics titration utilized an initial blank injection and 5 concentrations with 2 fold serial dilution with a maximum concentration of 500 nM, blanked to a preceding 6 point blank single cycle kinetics injection for double referencing.
(§6) The kd is measured independently by determining the percentage unoccupied compound binding site over time by measuring the binding of a chaser compound measured by SPR.
(§7) Chaser binding was measured by a multicycle kinetics SPR experiment using a contact time of 20 seconds, a flow rate of 30 μl/min, and a dissociation time of 120 seconds. […] The % compound bound at a given time was determined by comparison to a single injection of chaser preceding the single cycle kinetics titration defined below. % Compound Bound=(1−(RUT/RUT0))*100
(§8) The % compound bound is plotted against time in seconds and fit to a single exponential, where the exponent represents the kd of the compound-protein complex. The single cycle kinetics experiment of the compound is then fit with a fixed kd determined using the chaser.

Experiment [2] concerns the target c-Cbl (residues 47-435) (Homo sapiens (Human), UniProt P22681). The experiment in a line: c-Cbl SPR assay. Format: binding. To be noted: 20° C. Here is the method:
as §1, §2, §3, §4, §5, §6, §7, §8
A general note: In SPR one partner is held on a chip, and binding of the other changes the refractive index at the surface.

Experiment [3] deals with Cbl-b (Homo sapiens (Human), UniProt Q13191). The experiment in a line: Cbl-b LCK Ub TR-FRET assay (Cbl-b Lck HTRF). Format: biochemical. The settings on record: for IC50: Cbl-b LCK Ub TR-FRET; for fold-selectivity (Cbl-b over C-cbl) / (fold-selectivity) Cbl-b and C-Cbl Selectivity: ratio C-cbl Lck HTRF IC50 / Cbl-b Lck HTRF IC50. In short, it runs like this:
(§9)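 Signal is read once the detection mix has stood 20 min at ambient temperature. Curves are anchored by DMSO as maximum and by omission of LCK as minimum.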

The target in experiment [4] is c-Cbl (Homo sapiens (Human), UniProt P22681). The experiment can be described thus: C-Cbl LCK Ub TR-FRET assay (C-cbl Lck HTRF). Format: biochemical. The procedure, abridged:
as §9
In general terms: In TR-FRET formats the signal depends on donor and acceptor labels being close together.

Sequence of Cbl-b (Q13191 40-426): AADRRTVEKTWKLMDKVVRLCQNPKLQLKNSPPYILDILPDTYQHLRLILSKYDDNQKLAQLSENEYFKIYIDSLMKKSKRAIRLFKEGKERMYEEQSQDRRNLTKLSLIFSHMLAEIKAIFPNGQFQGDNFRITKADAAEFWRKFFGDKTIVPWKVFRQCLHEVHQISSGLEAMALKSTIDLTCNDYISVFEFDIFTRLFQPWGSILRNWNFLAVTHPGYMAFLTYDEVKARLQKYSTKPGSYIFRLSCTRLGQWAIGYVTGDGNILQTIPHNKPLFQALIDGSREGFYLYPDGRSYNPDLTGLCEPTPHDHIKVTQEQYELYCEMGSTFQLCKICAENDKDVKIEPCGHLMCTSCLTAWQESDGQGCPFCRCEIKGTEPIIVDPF
Sequence of Human Cbl-b (residues 40-426) (Q13191 40-426): as above
Sequence of c-Cbl (residues 47-435) (P22681 47-435): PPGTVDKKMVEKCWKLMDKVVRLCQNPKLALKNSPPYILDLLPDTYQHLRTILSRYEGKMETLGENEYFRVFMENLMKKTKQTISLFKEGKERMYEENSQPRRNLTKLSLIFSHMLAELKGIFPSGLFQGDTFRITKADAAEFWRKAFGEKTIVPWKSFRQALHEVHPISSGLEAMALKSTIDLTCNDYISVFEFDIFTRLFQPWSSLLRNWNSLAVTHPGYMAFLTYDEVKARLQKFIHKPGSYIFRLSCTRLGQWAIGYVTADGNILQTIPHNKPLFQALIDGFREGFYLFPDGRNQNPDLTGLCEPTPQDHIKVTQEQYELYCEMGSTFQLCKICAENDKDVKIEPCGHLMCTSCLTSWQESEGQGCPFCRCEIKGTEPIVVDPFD
Sequence of c-Cbl (P22681 47-435): as above

Usually Kd stands for the concentration at which binding is half-saturated. Read a high Kd as weaker binding. In experiment [1], `Cn1cnnc1C1(c2cccc(N3Cc4c(cc(CNC5(C)CCC5)cc4C(F)(F)F)C3=O)c2)CC2(CCC2)C1` gave a Fold of selectivity of 9.5× and a Kd of 2.1 nM. In experiment [2], the Kd was 20 nM.
For `CC(C)[C@H]1CN(C)CCN1Cc1cc2c(c(C(F)(F)F)c1)CN(c1cccc(C3(c4nncn4C)CC4(COC4)C3)c1)C2=O` the same measures were 14×, 5.7 nM and 78 nM.
Turning to “2-(3-(2-(4-methyl-4H-1,2,4-triazol-3-yl)-6-oxospiro[3.3]heptan-2-yl)phenyl)-6-(((1-methylcyclobutyl)amino)methyl)-4-(trifluoromethyl)isoindolin-1-one [Compound 92]”, in experiment [1], the Fold of selectivity was found to be 6.4× and the affinity, expressed as Kd, was 3.4 nM. The same compound came in with a Kd in experiment [2] of 24 nM.
The corresponding values for “2-(3-(3,3-dimethyl-1-(4-methyl-4H-1,2,4-triazol-3-yl)cyclobutyl)phenyl)-6-(((1-methylcyclobutyl)amino)methyl)-4-(trifluoromethyl)-isoindolin-1-one [Compound 39]” are 6.6×, 2.3 nM and 16 nM.
The compound “2-(3-(6-hydroxy-2-(4-methyl-4H-1,2,4-triazol-3-yl)spiro[3.3]heptan-2-yl)phenyl)-6-(((1-methylcyclobutyl)amino)methyl)-4-(trifluoromethyl)isoindolin-1-one [Compound 93]” showed a Fold of selectivity in experiment [1] of 7.5×. Also, the Kd in experiment [1] stood at 1 nM; in experiment [2] it was 7.5 nM.
For “2-(3-((1r,3r)-3-fluoro-1-(4-methyl-4H-1,2,4-triazol-3-yl)cyclobutyl)phenyl)-6-(((1-methylcyclobutyl)amino)methyl)-4-(trifluoromethyl)isoindolin-1-one [Compound 36]” the same measures were 2.8×, 59 nM and 170 nM.
As usually defined, the IC50 is the point on the concentration scale where inhibition reaches its midpoint. Low values mean inhibition by little substance, high ones a need for much substance. In the case of `Cn1cnnc1C(c1cccc(N2Cc3c(cc(CNC4(C)CCC4)cc3C(F)(F)F)C2=O)c1)C1CC(F)(F)C1` (racemic) [Compound 145, 2-(3-((3,3-difluorocyclobutyl)(4-methyl-4H-1,2,4-triazol-3-yl)methyl)phenyl)-6-(((1-methylcyclobutyl)amino)methyl)-4-(trifluoromethyl)isoindolin-1-one], the IC50 stood at 76 nM in experiment [3] and 180 nM in experiment [4]. In addition, the “fold-selectivity (Cbl-b over C-cbl)” value in experiment [3] was 2.4x. Besides, the Fold of selectivity in experiment [1] turned out to be 14×. Besides, the Kd was determined as 19 nM in experiment [1] and 290 nM in experiment [2].
In the case of `Cn1cnnc1[C@@](O)(c1cccc(N2Cc3c(cc(CNC4(C)CCC4)cc3C(F)(F)F)C2=O)c1)C1CCC1` (single isomer, unassigned) [Compound 2], in experiment [3], 16 nM corresponded to half-maximal inhibition (IC50) and the “fold-selectivity (Cbl-b over C-cbl)” value is listed as “(1.5x)”. In experiment [1], this compound gave a Fold of selectivity of 13× and a Kd of 2.3 nM. This compound yielded an IC50 in experiment [4] of 24 nM. For the same compound, in experiment [2], the Kd worked out at 29 nM.
`CO[C@H]1C[C@H]([C@@H](c2cccc(N3Cc4c(cc(CN5CCN(C)C[C@@H]5C(C)C)cc4C(F)(F)F)C3=O)c2)c2nncn2C)C1` (single isomer, unassigned) [Compound 12]: in experiment [3], the IC50 amounted to 12 nM and the “fold-selectivity (Cbl-b over C-cbl)” value is given as “(1.5x)”. In experiment [1], this compound came in with a Fold of selectivity of 5× and an equilibrium dissociation constant (Kd) of 2.5 nM. For the same compound, in experiment [4], 18 nM corresponded to half-maximal inhibition (IC50). In experiment [2], the Kd amounted to 12 nM.
For the compound `CO[C@H]1C[C@@H]([C@@H](c2cccc(N3Cc4c(cc(CN5CCN(C)C[C@@H]5C(C)C)cc4C(F)(F)F)C3=O)c2)c2nncn2C)C1` (single isomer, unassigned) [Compound 14], the half-maximal inhibitory concentration (IC50) in experiment [3] was determined as 630 nM; in experiment [4] it was 1000 nM. For the same compound, the “fold-selectivity (Cbl-b over C-cbl)” value in experiment [3] is reported as “(1.6x)”. Besides, in experiment [1], the Fold of selectivity is on record as 8.8×. Also, the Kd in experiment [1] stood at 630 nM; in experiment [2], 5500 nM.
For `CO[C@H]1C[C@H]([C@@H](c2cccc(N3Cc4c(cc(CN5CCN(C)C[C@@H]5C(C)C)cc4C(F)(F)F)C3=O)c2)c2nncn2C)C1` (single isomer, unassigned) [Compound 15], the half-inhibitory concentration (IC50) in experiment [3] came to 1900 nM; in experiment [4], 4900 nM. Also, the “fold-selectivity (Cbl-b over C-cbl)” value in experiment [3] is “(1.6x)”. In experiment [1], this compound came in with a Fold of selectivity of 14×. The results for the dissociation constant (Kd) in experiment [1] and in experiment [2] were 770 nM and 11000 nM, respectively.
On to `CC(C)[C@H]1CN(C)CCN1Cc1cc2c(c(C(F)(F)F)c1)CN(c1cccc([C@]3(c4nncn4C)C[C@H](C#N)C3)c1)C2=O` (single isomer, unassigned) [Compound 63], for which the figures for the IC50 in experiment [3] and in experiment [4] were 7.9 nM and 14.2 nM, respectively. Further, in experiment [3], the “fold-selectivity (Cbl-b over C-cbl)” value is listed as “(1.8x)”. In experiment [1], this compound showed a Fold of selectivity of 5.1×. Besides, the figures for the Kd in experiment [1] and in experiment [2] were 3.7 nM and 19 nM, respectively.
On to `CC(C)[C@H]1CN(C)CCN1Cc1cc2c(c(C(F)(F)F)c1)CN(c1cccc([C@]3(c4nncn4C)C[C@@H](C#N)C3)c1)C2=O` (single isomer, unassigned) [Compound 64], for which, in experiment [3], the IC50 stood at 24 nM and the “fold-selectivity (Cbl-b over C-cbl)” value is “(2.9x)”. Further, in experiment [1], the Fold of selectivity worked out at 5.1× and binding was put at a Kd of 16 nM. In experiment [4], the concentration for half-maximal inhibition (IC50) came out at 70 nM. The compound also showed a Kd in experiment [2] of 81 nM.
Consider `C[C@H]1CCCN(Cc2cc3c(c(C(F)(F)F)c2)CN(c2cccc(C4(c5nncn5C)CC5(COC5)C4)c2)C3=O)C1` (single isomer, unassigned) [Compound 66], for which, in experiment [3], the IC50 was 25 nM and the “fold-selectivity (Cbl-b over C-cbl)” value is on record as “(2.5x)”. In experiment [1], this compound had a Fold of selectivity of 5.0× and a Kd of 16 nM. Besides, it took 62.5 nM to reach half-maximal inhibition in experiment [4] (IC50). In addition, in experiment [2], binding was put at a Kd of 81 nM.
Turning to `CC1=C[C@@](c2cc(NC3CCC3)nc(N3Cc4c(cc(CN5CCN(C)C[C@@H]5C(C)C)cc4C(F)(F)F)C3=O)c2)(c2nncn2C)C1` (single isomer, unassigned) [Compound 71], the IC50 in experiment [3] was determined as 14 nM; in experiment [4] it was 16.8 nM. Further, the “fold-selectivity (Cbl-b over C-cbl)” value in experiment [3] is reported as “(1.2x)”. The compound further yielded a Fold of selectivity in experiment [1] of 9.1×. The Kd in experiment [1] was determined as 3.7 nM; in experiment [2] it was 34 nM.
Consider `CO[C@H]1C[C@](c2cccc(N3Cc4c(cc(CN5CCC6(CC5)CC(O)C6)cc4C(F)(F)F)C3=O)c2)(c2nncn2C)C1` [Compound 424, 6-((2-hydroxy-7-azaspiro[3.5]nonan-7-yl)methyl)-2-(3-((1r,3r)-3-methoxy-1-(4-methyl-4H-1,2,4-triazol-3-yl)cyclobutyl)phenyl)-4-(trifluoromethyl)isoindolin-1-one], for which the IC50 in experiment [3] (Example 121) amounted to 230 nM; in experiment [4] it was 1500 nM. Moreover, in experiment [3], the “(fold-selectivity) Cbl-b and C-Cbl Selectivity” value is 6.5x.
Take `C[C@@H](NC1(C)CCC1)c1cc2c(c(C(F)(F)F)c1)CN(c1cccc([C@@H](c3nncn3C)C3COC3)c1)C2=O` [Compound 443, 2-(3-((S)-(4-methyl-4H-1,2,4-triazol-3-yl)(oxetan-3-yl)methyl)phenyl)-6-((R)-1-((1-methylcyclobutyl)amino)ethyl)-4-(trifluoromethyl)isoindolin-1-one]: the IC50 was 3300 nM in experiment [3] (Example 121) and 5700 nM in experiment [4]. Also, the “(fold-selectivity) Cbl-b and C-Cbl Selectivity” value in experiment [3] is reported as 1.7x.
Consider `Cn1cnnc1[C@H](c1cccc(N2Cc3c(cc(CNC4(C)CCC4)cc3C(F)F)C2=O)c1)C1CC(F)C1` (stereo partly drawn) [Compound 460, 4-(difluoromethyl)-2-(3-((S)-((1r,3S)-3-fluorocyclobutyl)(4-methyl-4H-1,2,4-triazol-3-yl)methyl)phenyl)-6-(((1-methylcyclobutyl)amino)methyl)isoindolin-1-one], for which the IC50 in experiment [3] (Example 121) came to 610 nM; in experiment [4], 3900 nM. Besides, the “(fold-selectivity) Cbl-b and C-Cbl Selectivity” value in experiment [3] was 6.4x.
The corresponding values for `CO[C@H]1C[C@](c2cccc(N3Cc4c(cc(CNC5(C)COC5)cc4C(F)(F)F)C3=O)c2)(c2nncn2C)C1` [Compound 479, 2-(3-((1r,3r)-3-methoxy-1-(4-methyl-4H-1,2,4-triazol-3-yl)cyclobutyl)phenyl)-6-(((3-methyloxetan-3-yl)amino)methyl)-4-(trifluoromethyl)isoindolin-1-one] are 29 nM, 250 nM and 8.6x.

The record behind these values is US12187709B2 (Genentech, Inc., priority 2021, dated 2025).
